Reference: EP0431076B1, “PENTACYCLIC TRITERPENOID COMPOUNDS AS TOPOISOMERASE INHIBITORS OR CELL DIFFERENTIATION INDUCERS” (RESEARCH TRIANGLE INSTITUTE, priority 1988, dated 1990)

Biological target: T1, DNA topoisomerase I (Homo sapiens, UniProt P11387)
T1 construct: DNA topoisomerase I was purified to homogeneity from chronic human leukemic cells; from tissue; host or cells: chronic human leukemic cells (endogenous enzyme, purified)
T1 sequence (P11387 1-765): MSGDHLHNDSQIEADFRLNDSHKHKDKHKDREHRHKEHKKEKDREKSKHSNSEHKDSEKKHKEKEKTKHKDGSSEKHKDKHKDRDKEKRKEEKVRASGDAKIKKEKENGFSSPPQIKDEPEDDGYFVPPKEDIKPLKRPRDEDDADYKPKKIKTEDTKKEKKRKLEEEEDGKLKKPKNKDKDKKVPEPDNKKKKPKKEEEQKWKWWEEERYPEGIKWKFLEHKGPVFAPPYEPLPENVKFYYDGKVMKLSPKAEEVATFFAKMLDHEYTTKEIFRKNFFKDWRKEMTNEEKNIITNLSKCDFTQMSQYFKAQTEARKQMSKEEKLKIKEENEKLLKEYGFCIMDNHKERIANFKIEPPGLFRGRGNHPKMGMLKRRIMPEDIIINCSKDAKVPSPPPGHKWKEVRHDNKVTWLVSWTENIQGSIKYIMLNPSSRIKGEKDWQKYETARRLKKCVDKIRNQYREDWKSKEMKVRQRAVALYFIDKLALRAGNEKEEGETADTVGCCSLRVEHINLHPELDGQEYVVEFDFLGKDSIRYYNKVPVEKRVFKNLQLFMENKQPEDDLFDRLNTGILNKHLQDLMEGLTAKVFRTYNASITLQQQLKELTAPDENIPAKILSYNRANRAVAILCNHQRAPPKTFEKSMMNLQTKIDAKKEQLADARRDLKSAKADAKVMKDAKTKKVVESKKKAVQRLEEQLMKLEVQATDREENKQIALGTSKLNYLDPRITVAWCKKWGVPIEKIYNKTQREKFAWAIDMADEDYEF
Assay: Topoisomerase I inhibition, supercoiled pBR 322 DNA relaxation assay
Format: biochemical
Conditions: gel analysis, Figure 5
Text: Topoisomerase I inhibitory activity was monitored by using the supercoiled pBR 322 DNA relaxation assay according to a published procedure [Liu et al., Proc. Natl. Acad. Sci., U.S.A., 76, 3487 ([…])].
DNA topoisomerase I was purified to homogeneity from chronic human leukemic cells. Plasmid pBR 322 DNA was purified by phenol deproteinization of cleared lysates followed by CsCl/ethidium isopycnic centrifugation and gel filtration.

SMILES | potency in topoisomerase I inhibition relative to standard camptothecin (fold potency versus camptothecin) [X] | potency in topoisomerase I inhibition compared with standard camptothecin (in words)
CC(=O)O[C@@H]1CC[C@@]2(C)[C@@H](CC[C@]3(C)[C@@H]2CC=C2[C@@H]4CC(C)(C)CC[C@]4(C)CC[C@]23C)[C@@]1(C)C(=O)O [A-1, α-boswellic acid acetate] | ~3 | –
CC(=O)O[C@@H]1CC[C@@]2(C)[C@@H](CC[C@]3(C)[C@@H]2CC=C2[C@@H]4[C@@H](C)[C@H](C)CC[C@]4(C)CC[C@]23C)[C@@]1(C)C(=O)O [B-1, β-boswellic acid acetate] | – | comparable potency
